Marks after values point to notes of the source that are not given here.

Data on 1 substance can be found in patent US20130097725A1, “SOYBEAN NODULATION FACTOR RECEPTOR PROTEINS, ENCODING NUCLEIC ACIDS AND USES THEREFOR” (The University of Queensland, priority 2005, published 2013).

Assay [1] has as its system soybean plants (nod49, nod139, Bragg). Kind of assay: Interaction of B. japonicum inoculum titer and Nod Factor on nodule number. Particulars: Plus NF 10^−8 M, 35 days. It is filed as in vivo, Glycine max.
Assay [2] has the same test system. The description is as above. The format is in vivo, Glycine max. As to conditions: for nodule number: nod49, Plus NF 10^−8 M, 35 days. From the text:
We tested this phenomenon by inoculating nod49 plants with different titers of B. japonicum CB1809 and observed increased partial nodulation success per plant with elevated rhizobial concentration. […] Since infection thread formation is essential for the progression of early CCDs (FIG. 4B), mutations in GmNFR1α result in non-nodulation. Thus GmNFR1α mutants, when exposed to high NF levels, form nodules via normal infection, showing that GmNFR1β suffices for all early nodule ontogeny steps.

Consider NodV-MeFuc [NF], for which the nodule number is 82.5 ± 5.0 ^d in assay [1] (Bragg, B. japonicum CB1809 10^3 cfu·ml^−1); 101.4 ± 8.5 ^e in assay [1] (Bragg, B. japonicum CB1809 10^7 cfu·ml^−1); 104.2 ± 6.9 ^e in assay [1] (Bragg, B. japonicum CB1809 10^10 cfu·ml^−1); 0.0 ^a in assay [1] (nod139, B. japonicum CB1809 10^3 cfu·ml^−1); 0.0 ^a in assay [1] (nod139, B. japonicum CB1809 10^7 cfu·ml^−1); 0.2 ± 0.2 ^a in assay [1] (nod139, B. japonicum CB1809 10^10 cfu·ml^−1). Moreover, the nodule number in assay [2] (B. japonicum CB1809 10^3 cfu·ml^−1) was 0.0 ^a; in assay [2] (B. japonicum CB1809 10^7 cfu·ml^−1) it was 0.7 ± 0.2 ^b; in assay [2] (B. japonicum CB1809 10^10 cfu·ml^−1) it was 2.3 ± 0.4 ^c. Moreover, in assay [2] (nod49 mutant plants, NF 10 nM), the “nodulation on addition of NF to the nutrient medium” value is on record as “significantly increased”.
